Where a name gives a salt, the structure may show the parent alone. Numbered stars: 1 amine (or outer) side, 2 acyl side, 3 side chain; on linkers, the order of the positions; unused ones are H or OH. Square brackets hold non-standard residues; d marks the D form. Ends that are not written are not given here. γGlu = O=C(O)[C@H](CCC(=O)[*:2])N[*:1]
How the values were obtained:
[1] = Evaluation of kokumi taste, quantitative sensory evaluation test; parameters: species or system human; details: for Kokumi Intensity Aftertaste / Kokumi Intensity First-middle taste: score control 0, strong 3, very strong 5, n=4
Protocol: On the compounds in which the calcium receptor activating action was found (sodium salts of Compound Nos. 1, 7 and 21), the intensity of kokumi-imparting activity was examined by a quantitative sensory evaluation test. In 5 ml of distilled water was dissolved 525 mg of Compound No. 1 described in REFERENCE EXAMPLE I and of REFERENCE […] EXAMPLE I. By adding 16.4 ml of 0.1M sodium hydroxide solution to the resulting solution, the solution was adjusted to pH 6.5 to 7 followed by freeze-drying. The resulting Na salt was provided for use. In addition, 500 mg of Compound No. 7 described in REFERENCE EXAMPLE I and REFERENCE […] EXAMPLE 7 was suspended in 5 ml of distilled water. To the suspension were sequentially added 1.61 ml of 1M sodium hydroxide and 0.8 ml of 2M hydrochloric acid at 0° C. The solid precipitated was taken out by filtration and dried under reduced pressure at 40° C. to give 426 mg of Reference Compound No. 7. After the solid substance obtained was suspended in 10 ml of distilled water, 1.2 ml of 1M sodium hydroxide was added to the suspension and freeze-dried. The resulting Na salt was provided for use. Reference Compound No. 21 was used in the form of the Na salt, which was prepared from Compound No. 21 described in REFERENCE EXAMPLE I and REFERENCE […] EXAMPLE 21 by the same procedures as described above.
A quantitative sensory evaluation test was conducted as follows. The intensity of kokumi-imparting activity was examined when 0.000001 to 0.1 g/dl of the compound as a sample (No. 1—Na salt) was mixed with distilled water containing sodium glutamate (0.05 g/dl), inosine monophosphate (0.05 g/dl) and sodium chloride (0.5 g/dl). As a reference, γGlu-Cys-Gly and γGlu-Val-Gly were used, each of which is a known kokumi-imparting component. The sample that became acidic to an additive-free control after dissolving the sample was used by adjusting its pH within ±0.2 with NaOH based on the additive-free control. Sensory scoring was defined as a control: 0, strong: 3 and very strong: 5, and performed in n=4. Meanwhile, a “first-middle taste” is intended to mean the taste combining the first taste and middle taste.

[2] = test system: rat large intestine loop; test: Effect of CaSR agonist on water absorption in rat large intestine loop method (PGE2-treated); type: in vivo; details: male SD (IGS) rat, PGE2 i.p., compound in Tyrode solution in the loop, 1 hour
Protocol: Under pentobarbital anesthesia the cecum and large intestine were isolated from the abdomen of a male SD (IGS) rat, and a large intestine loop was prepared by ligating a point 5 cm just below the cecum. Immediately after preparing the loop, PGE2 (4 μg/ml/kg, SIGMA) was intraperitoneally administered. Thirty minutes later, 2 ml of Tyrode solution (136.9 mM NaCl, 2.7 mM KCl, 1.8 mM CaCl2.2H2O, 1.04 mM MgCl2.6H2O, 0.04 mM NaH2PO4.2H2O, 5.55 mM glucose and 11.9 mM NaHCO3) was poured into the loop prepared. An hour later, the weight of the loop, the weight when the liquid was removed from the loop and the loop area were measured to calculate the weight per unit area of the liquid that remains in the loop.
A test compound was dissolved in Tyrode solution (adjusted to pH 6.5 to 7.5), which was provided for tests.
The remaining liquid weight per unit area (g/cm^2) was calculated by the following equation. Remaining liquid weight per unit area (g/cm^2)=(loop weight−loop weight when the liquid was removed from the loop)/loop area
Water absorption was evaluated by calculating the inhibition ratio by the following equation. Inhibition ratio(%)=100−(remaining liquid weight per unit area with a drug−basic average remaining liquid weight per unit area)/(average remaining liquid weight per unit area of vehicle−basic average remaining liquid weight per unit area)×100 […]

Molecule: N[C@@H](CCC(=O)Nc1cccc(S(=O)(=O)O)c1)C(=O)O [No. 1-Na salt, N^5-(3-sulfophenyl)-L-glutamine]
- kokumi-imparting activity ([1]; 0.000001 to 0.1 g/dl in water with sodium glutamate 0.05, inosine monophosphate 0.05, sodium chloride 0.5 g/dl): widely found in the above concentrations
- Kokumi Intensity Aftertaste ([1]; 0.00001 g/dl): 1.0
- Kokumi Intensity First-middle taste ([1]; 0.00001 g/dl): 0.7
- Comments on Sensory Evaluation ([1]; 0.0001 g/dl): There was harmony accompanied
- Kokumi Intensity Aftertaste ([1]; 0.0001 g/dl): 2.0
- Kokumi Intensity First-middle taste ([1]; 0.0001 g/dl): 1.8
- Kokumi Intensity Aftertaste ([1]; 0.0005 g/dl): 3.0
- Kokumi Intensity First-middle taste ([1]; 0.0005 g/dl): 2.6
- Kokumi Intensity Aftertaste ([1]; 0.001 g/dl): 3.6
- Kokumi Intensity First-middle taste ([1]; 0.001 g/dl): 3.2
- Comments on Sensory Evaluation ([1]; 0.01 g/dl): All tastes were strong.
- Kokumi Intensity Aftertaste ([1]; 0.01 g/dl): 5.0
- Kokumi Intensity First-middle taste ([1]; 0.01 g/dl): 5.0

Molecule: N[C@@H](CCC(=O)Nc1cc(Cl)cc(S(=O)(=O)O)c1O)C(=O)O [No. 7-Na salt, N^5-(5-chloro-2-hydroxy-3-sulfophenyl)-L-glutamine]
- Comments on Sensory Evaluation ([1]; 0.00005 g/dl): Thickness mainly in the middle taste.
- Kokumi Intensity Aftertaste ([1]; 0.00005 g/dl): 2.5
- Kokumi Intensity First-middle taste ([1]; 0.00005 g/dl): 2.2
- Kokumi Intensity Aftertaste ([1]; 0.0001 g/dl): 3.2
- Kokumi Intensity First-middle taste ([1]; 0.0001 g/dl): 2.5
- Comments on Sensory Evaluation ([1]; 0.0005 g/dl): Rich thickness in the middle taste
- Kokumi Intensity Aftertaste ([1]; 0.0005 g/dl): 4.0
- Kokumi Intensity First-middle taste ([1]; 0.0005 g/dl): 3.3

Molecule: Cc1c(Cl)cc(NC(=O)CC[C@H](N)C(=O)O)cc1S(=O)(=O)O [No. 21-Na salt, N^5-(3-chloro-4-methyl-5-sulfophenyl)-L-glutamine]
- Kokumi Intensity Aftertaste ([1]; 0.0002 g/dl): 2.0
- Kokumi Intensity First-middle taste ([1]; 0.0002 g/dl): 1.5
- Kokumi Intensity Aftertaste ([1]; 0.0005 g/dl): 3.1
- Kokumi Intensity First-middle taste ([1]; 0.0005 g/dl): 2.6
- Kokumi Intensity Aftertaste ([1]; 0.001 g/dl): 3.7
- Kokumi Intensity First-middle taste ([1]; 0.001 g/dl): 3.1

Molecule: N[C@@H](CCC(=O)Nc1cccc(S(=O)(=O)O)c1)C(=O)O [Reference Compound No. 1, N^5-(3-sulfophenyl)-L-glutamine]
- Water absorption [2]: promoted dose-dependently

Molecule: N[C@@H](CCC(=O)Nc1cc(Cl)cc(S(=O)(=O)O)c1O)C(=O)O [Reference Compound No. 7, N^5-(5-chloro-2-hydroxy-3-sulfophenyl)-L-glutamine]
- Water absorption [2]: promoted in a dose-dependent manner

Molecule: [γGlu]-Cys-Gly
- Comments on Sensory Evaluation ([1]; 0.01 g/dl): Richness, thickness and continuity
- Kokumi Intensity Aftertaste ([1]; 0.01 g/dl): 3.0
- Kokumi Intensity First-middle taste ([1]; 0.01 g/dl): 3.0

Molecule: [γGlu]-Val-Gly
- Comments on Sensory Evaluation ([1]; 0.001 g/dl): Smoothness, richness and growth
- Kokumi Intensity Aftertaste ([1]; 0.001 g/dl): 3.0
- Kokumi Intensity First-middle taste ([1]; 0.001 g/dl): 2.5
- Comments on Sensory Evaluation ([1]; 0.005 g/dl): Smoothness, richness and growth
- Kokumi Intensity Aftertaste ([1]; 0.005 g/dl): 4.0
- Kokumi Intensity First-middle taste ([1]; 0.005 g/dl): 3.5
